Laboratory results: ChEMBL document CHEMBL1124170, “N2-phenyldeoxyguanosine: a novel selective inhibitor of herpes simplex thymidine kinase” (J Med Chem, 1988)

Key:
Thymidine kinase = target: T1, Thymidine kinase (Human herpesvirus 1 (strain SC16) (HHV-1) (Human herpes simplex virus1), UniProt P06479); assay: Inhibitory activity against Herpes simplex virus type-I specific thymidine kinase; parameters: species or system Human alphaherpesvirus 1 strain SC16
T1 sequence (P06479 whole entry): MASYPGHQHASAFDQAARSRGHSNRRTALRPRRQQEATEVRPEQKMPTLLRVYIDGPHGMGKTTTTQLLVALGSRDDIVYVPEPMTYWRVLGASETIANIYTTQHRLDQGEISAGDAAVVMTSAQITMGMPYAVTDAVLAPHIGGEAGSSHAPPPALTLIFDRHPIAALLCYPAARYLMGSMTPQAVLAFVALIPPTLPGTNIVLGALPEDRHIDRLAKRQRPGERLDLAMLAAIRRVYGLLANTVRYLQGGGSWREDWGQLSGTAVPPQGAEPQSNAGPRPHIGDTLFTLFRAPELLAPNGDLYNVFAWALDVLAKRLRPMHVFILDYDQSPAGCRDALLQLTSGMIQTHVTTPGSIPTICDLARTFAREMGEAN

[1] = system: Thymidine kinase (Human alphaherpesvirus 1); assay: Inhibitory activity against Herpes simplex virus type-I specific thymidine kinase; No inhibition detected at 1 mM concentration

Q: How did the EC50 (Thymidine kinase) turn out when `Cc1ccc(Nc2nc3nc[nH]c3c(=O)[nH]2)cc1` was run?
A: 50 µM

Q: `CCCCc1ccc(Nc2nc(N)c3ncn([C@H]4C[C@H](O)[C@@H](CO)O4)c3n2)cc1` was tested. Which EC50 [1] did it give?
A: Not Active

Q: With `CCCCc1ccc(Nc2nc3c(ncn3[C@H]3O[C@@H](CO)[C@H](O)[C@@H]3O)c(=O)[nH]2)cc1` as the molecule, how does the EC50 (Thymidine kinase) read?
A: 75 µM

Q: Which EC50 (Thymidine kinase) does the source give for `CCCCc1ccc(Nc2nc3c(ncn3COCCO)c(=O)[nH]2)cc1` here?
A: 140 µM

Q: With `CCCCc1ccc(Nc2nc3c(ncn3[C@H]3C[C@H](O)[C@@H](CO)O3)c(=O)[nH]2)cc1` as the molecule, how does the EC50 (Thymidine kinase) read?
A: 25 µM

Q: `O=C1N=C(Nc2ccccc2)N=C2C1N=CN2[C@H]1C[C@H](O)[C@@H](COP(=O)(O)O)O1` (stereo not given in full) was tested. Which EC50 (Thymidine kinase) did it give?
A: 3 µM

Q: How did the EC50 (Thymidine kinase) turn out when `CCCCc1ccc(Nc2nc3nc[nH]c3c(=O)[nH]2)cc1` was run?
A: 50 µM

Q: With `CCCCc1ccc(NC2=NC(=O)C3N=CN([C@H]4C[C@H](O)[C@@H](COP(=O)(O)O)O4)C3=N2)cc1` (stereo not given in full) as the molecule, how does the EC50 (Thymidine kinase) read?
A: 400 µM

Q: Which EC50 (Thymidine kinase) does the source give for `Cc1ccc(Nc2nc3c(ncn3C3O[C@@H](CO)[C@H](O)[C@@H]3O)c(=O)[nH]2)cc1` (stereo not given in full) here?
A: 30 µM

Q: How did the EC50 (Thymidine kinase) turn out when `CCc1cccc(Nc2nc3nc[nH]c3c(=O)[nH]2)c1` was run?
A: 3 µM
